The values that follow come from patent US7524853B2 (Solvay Pharmaceuticals B.V., priority 2003, dated 2009).

SMILES strings stand for the structures.

What all share (format): cell-based
The target of assay [1] is T1, 17β-hydroxysteroid dehydrogenase type 2 (17β-HSD type 2) (Homo sapiens, UniProt P37059).
T1 construct: expressed in transfected cells; host or cells: MCF-7
T1 sequence (P37059 1-387): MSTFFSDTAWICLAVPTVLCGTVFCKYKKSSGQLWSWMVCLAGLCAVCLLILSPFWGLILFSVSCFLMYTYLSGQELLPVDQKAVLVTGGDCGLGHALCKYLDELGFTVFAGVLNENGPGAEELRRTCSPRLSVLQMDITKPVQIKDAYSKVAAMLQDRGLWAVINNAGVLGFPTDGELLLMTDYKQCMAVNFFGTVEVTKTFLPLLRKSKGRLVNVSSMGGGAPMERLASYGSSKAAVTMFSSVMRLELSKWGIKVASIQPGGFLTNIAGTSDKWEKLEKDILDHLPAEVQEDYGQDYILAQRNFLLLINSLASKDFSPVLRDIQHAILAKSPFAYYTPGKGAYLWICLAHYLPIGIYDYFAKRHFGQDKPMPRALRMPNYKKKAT
Kind of assay: Inhibition of 17β-HSD type 2 in MCF-7 cells stably expressing the isoenzyme (tritium labeled estradiol conversion, HPLC). The conditions noted are these: MCF7, MCF-7 cells expressing 17β-HSD type 2, 2 nM tritium labeled estradiol; for inhibition at 1 µM: 1 μM test compound, read-out: % Inhibition HSD2 1 μM; for inhibition at 10 µM: 10 μM test compound, read-out: % Inhibition HSD2 10 μM. In a few lines: (§1)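 Each isoenzyme was stably expressed in its own MCF-7 line, and cells were incubated in growth medium with test compound and 2 nM tritiated substrate: estrone (type 1), estradiol (type 2), androstenedione (type 3). Medium was sampled after a fixed time, TCA-stopped, and analysed by HPLC-flow scintillation; inhibition versus compound-free control, two compound concentrations.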

Assay [2] addresses T2, 17β-hydroxysteroid dehydrogenase type 3 (17β-HSD type 3) (Homo sapiens, UniProt P37058).
T2 construct: expressed in transfected cells; host or cells: MCF-7
T2 sequence (P37058 1-310): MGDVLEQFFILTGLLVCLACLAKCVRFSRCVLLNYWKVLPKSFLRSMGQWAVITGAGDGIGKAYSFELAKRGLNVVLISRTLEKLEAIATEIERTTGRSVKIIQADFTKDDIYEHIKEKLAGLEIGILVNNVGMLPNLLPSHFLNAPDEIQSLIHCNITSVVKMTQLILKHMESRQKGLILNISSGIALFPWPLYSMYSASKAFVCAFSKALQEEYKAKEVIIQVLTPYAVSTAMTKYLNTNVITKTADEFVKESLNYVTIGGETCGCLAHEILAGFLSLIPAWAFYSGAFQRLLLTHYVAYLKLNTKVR
Nature of the assay: Inhibition of 17β-HSD type 3 in MCF-7 cells stably expressing the isoenzyme (tritium labeled androstenedione conversion, HPLC). The conditions noted are these: MCF7, MCF-7 cells expressing 17β-HSD type 3, 2 nM tritium labeled androstenedione; for inhibition at 1 µM: 1 μM test compound, read-out: % Inhibition HSD3 1 μM; for inhibition at 10 µM: 10 μM test compound, read-out: % Inhibition HSD3 10 μM. In a few lines:
as §1

In assay [3] the target is T3, 17β-hydroxysteroid dehydrogenase type 1 (17β-HSD type 1) (Homo sapiens, UniProt P14061).
T3 construct: expressed in transfected cells; host or cells: MCF-7
T3 sequence (P14061 1-328): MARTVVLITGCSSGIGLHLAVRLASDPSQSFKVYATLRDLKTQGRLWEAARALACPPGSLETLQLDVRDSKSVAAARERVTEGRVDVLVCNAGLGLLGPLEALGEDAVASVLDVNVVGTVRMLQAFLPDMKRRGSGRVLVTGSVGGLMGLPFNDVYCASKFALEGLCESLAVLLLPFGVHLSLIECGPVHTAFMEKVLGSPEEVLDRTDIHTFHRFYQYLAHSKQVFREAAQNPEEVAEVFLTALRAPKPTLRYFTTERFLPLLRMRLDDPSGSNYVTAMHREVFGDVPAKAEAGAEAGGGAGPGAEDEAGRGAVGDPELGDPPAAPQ
Nature of the assay: Inhibition of 17β-HSD type 1 in MCF-7 cells stably expressing the isoenzyme (tritium labeled estrone conversion, HPLC). The conditions noted are these: MCF7, MCF-7 cells expressing 17β-HSD type 1, 2 nM tritium labeled estrone; for inhibition at 1 µM: 1 μM test compound, read-out: % Inhibition HSD1 1 μM; for inhibition at 10 µM: 10 μM test compound, read-out: % Inhibition HSD1 10 μM. The procedure, abridged: as §1

In the case of `O=C(OCCn1c(-c2cccs2)nc2sc3c(c2c1=O)CCC(Br)C3=O)c1cccs1` (stereo not drawn) [No. 71, Thiophene-2-carboxylic acid 2-(7-bromo-4,8-dioxo-2-thiohen-2-yl-5,6,7,8-tetrahydro-4H-benzo[4,5]thieno[2,3-d]pyrimidin-3-yl)-ethyl ester], the inhibition at 1 µM in assay [1] turned out to be 28.9%; in assay [2], 21.9%; in assay [3], 20.7%. Moreover, the inhibition at 10 µM in assay [1] was 24.5%; in assay [2] it was 36%; in assay [3], 20.8%.

`O=C(OCCn1c(-c2cccs2)nc2sc3c(c2c1=O)CCC(Br)(Br)C3=O)c1cccs1` [No. 72, Thiophene-2-carboxylic acid 2-(7,7-dibromo-4,8-dioxo-2-thiohen-2-yl-5,6,7,8-tetrahydro-4H-benzo[4,5]thieno[2,3-d]pyrimidin-3-yl)-ethyl ester]: the inhibition at 1 µM is 18% in assay [1], 16.1% in assay [2] and 15.3% in assay [3]. For the same compound, the inhibition at 10 µM in assay [1] turned out to be 53.9%; in assay [2], 64.4%; in assay [3], 15.2%.

Regarding `O=C(OCCn1c(-c2cccs2)nc2sc3c(O)cccc3c2c1=O)c1cccs1` [No. 73, Thiophene-2-carboxylic acid 2-(8-hydroxy-4-oxo-2-thiohen-2-yl-4H-benzo[4,5]thieno[2,3-d]pyrimidin-3-yl)-ethyl ester], the inhibition at 1 µM in assay [1] came to 58.3%; in assay [2] it was 37.9%; in assay [3], 26.8%. The inhibition at 10 µM in assay [1] amounted to 90.5%; in assay [2], 82.6%; in assay [3], 32.8%.

Regarding `COCCn1c(-c2cccs2)nc2sc3c(c2c1=O)CCCC3` [No. 74, 3-(2-Methoxyethyl)-2-thiophen-2-yl-5,6,7,8-tetrahydro-3H-benzo[4,5]thieno[2,3-d]pyrimidin-4-one], the inhibition at 1 µM in assay [1] stood at 33.2%; in assay [2], 8.3%; in assay [3], 11.7%. Further, the inhibition at 10 µM in assay [1] is 26.1%; in assay [2], 8.3%; in assay [3], 12.2%.

Consider `COCCn1c(-c2cccs2)nc2sc3c(c2c1=O)CCCC3=O` [No. 75, 3-(2-Methoxyethyl)-2-thiophen-2-yl-6,7-dihydro-3H,5H-benzo[4,5]thieno[2,3-d]pyrimidine-4,8-dione], for which the results for the inhibition at 1 µM in assay [1], in assay [2] and in assay [3] were 20.2%, 5% and 14.5%, respectively. For the same compound, the inhibition at 10 µM in assay [1] was 23.1%; in assay [2], 17%; in assay [3], 11.9%.

In the case of `COCCn1c(-c2cccs2)nc2sc3c(c2c1=O)CCC(Br)C3=O` (stereo not drawn) [No. 76, 7-Bromo-3-(2-methoxyethyl)-2-thiophen-2-yl-6,7-dihydro-3H,5H-benzo[4,5]thieno[2,3-d]pyrimidine-4,8-dione], the results for the inhibition at 1 µM in assay [1], in assay [2] and in assay [3] were 44.6%, 47.1% and 35.8%, respectively. Moreover, the inhibition at 10 µM in assay [1] is 43.4%; in assay [2], 81.4%; in assay [3], 44.1%.

Consider `COc1cccc(-c2nc3sc4c(c3c(=O)n2Cc2ccccc2)CCCC4)c1` [No. 78, 3-Benzyl-2-(m-methoxyphenyl)-5,6,7,8-tetrahydro-3H-benzo[4,5]thieno[2,3-d]pyrimidin-4-one], for which the inhibition at 1 µM in assay [1] was 9.1%; in assay [2], -4.3%; in assay [3], 7.1%. The figures for the inhibition at 10 µM in assay [1], in assay [2] and in assay [3] were 7.8%, 27.6% and 28.5%, respectively.

As to `COc1cccc(-c2nc3sc4c(c3c(=O)n2Cc2ccccc2)CCCC4=O)c1` [No. 79, 3-Benzyl-2-(m-methoxyphenyl)-6,7-dihydro-3H,5H-benzo[4,5]thieno[2,3-d]pyrimidine-4,8-dione], the figures for the inhibition at 1 µM in assay [1], in assay [2] and in assay [3] were 34.4%, 21.9% and 26.6%, respectively. For the same compound, the inhibition at 10 µM in assay [1] stood at 31.6%; in assay [2] it was 59.7%; in assay [3], 39.1%.

Consider `COc1cccc(-c2nc3sc4c(c3c(=O)n2Cc2ccccc2)CCC(Br)C4=O)c1` (stereo not drawn) [No. 80, 3-Benzyl-7-bromo-2-(m-methoxyphenyl)-6,7-dihydro-3H,5H-benzo[4,5]thieno[2,3-d]pyrimidine-4,8-dione], for which the results for the inhibition at 1 µM in assay [1], in assay [2] and in assay [3] were 47.3%, 22.7% and 37%, respectively. Moreover, the inhibition at 10 µM in assay [1] is 51%; in assay [2] it was 35.4%; in assay [3], 39.3%.

Turning to `COc1cccc(-c2nc3sc4c(c3c(=O)n2Cc2ccccc2)CCC(Br)(Br)C4=O)c1` [No. 81, 3-Benzyl-7,7-dibromo-2-(m-methoxyphenyl)-6,7-dihydro-3H,5H-benzo[4,5]thieno[2,3-d]pyrimidine-4,8-dione], the inhibition at 1 µM was 32.1% in assay [1], 7.8% in assay [2] and 33.1% in assay [3]. Also, the inhibition at 10 µM is 35.6% in assay [1], 26.2% in assay [2] and 16.8% in assay [3].

With `COc1cccc(-c2nc3sc4c(O)cccc4c3c(=O)n2Cc2ccccc2)c1` [No. 83, 3-Benzyl-8-hydroxy-2-(m-methoxyphenyl)-3H-benzo[4,5]thieno[2,3-d]pyrimidin-4-one], the inhibition at 1 µM in assay [1] came out at 26.1%; in assay [2] it was 13.5%; in assay [3], 25.4%. Also, the figures for the inhibition at 10 µM in assay [1], in assay [2] and in assay [3] were 60.1%, 21% and 26.3%, respectively.

On to `COc1cccc(-c2nc3sc4c(OC(C)=O)cccc4c3c(=O)n2Cc2ccccc2)c1` [No. 84, Acetic acid 3-benzyl-4-oxo-2-(m-methoxyphenyl)-3,4-dihydro-benzo[4,5]thieno[2,3-d]pyrimidin-8-yl ester], for which the inhibition at 1 µM in assay [1] turned out to be 26.4%; in assay [2], 4%; in assay [3], 10.2%. The inhibition at 10 µM in assay [1] came out at 63.6%; in assay [2], 33.5%; in assay [3] it was 22.6%.

Take `CCCCn1c(-c2cc(OC)c(OC)c(OC)c2)nc2sc3c(c2c1=O)CCCC3` [No. 85, 3-Butyl-2-(3,4,5-trimethoxyphenyl)-5,6,7,8-tetrahydro-3H-benzo[4,5]thieno[2,3-d]pyrimidin-4-one]: the inhibition at 1 µM in assay [1] was 21.5%; in assay [2], -2.2%; in assay [3], 24.1%. The results for the inhibition at 10 µM in assay [1], in assay [2] and in assay [3] were 25.4%, 24.4% and 40.1%, respectively.

For the compound `CCCCn1c(-c2cc(OC)c(OC)c(OC)c2)nc2sc3c(c2c1=O)CCCC3=O` [No. 86, 3-Butyl-2-(3,4,5-trimethoxyphenyl)-6,7-dihydro-3H,5H-benzo[4,5]thieno[2,3-d]pyrimidine-4,8-dione], the inhibition at 1 µM in assay [1] was 18.9%; in assay [2], 11.3%; in assay [3], 23.6%. Also, the inhibition at 10 µM in assay [1] is 19.5%; in assay [2] it was 45.7%; in assay [3] it was 46.6%.

One may read the inhibition as the relative decrease from the control value, in per cent.
